In patent publication US7098343B2, “Compound” (Sterix, Limited, priority 2001, dated 2006):

Experiments:
uterus = details: cited from earlier work
rat liver E1-STS = biological target: T1, rat liver E1-STS (Rattus norvegicus, UniProt P15589); details: administered orally or subcutaneously; cited from earlier work
T1 construct: host or cells: rat liver after oral or subcutaneous dosing
T1 sequence (P15589 20-577): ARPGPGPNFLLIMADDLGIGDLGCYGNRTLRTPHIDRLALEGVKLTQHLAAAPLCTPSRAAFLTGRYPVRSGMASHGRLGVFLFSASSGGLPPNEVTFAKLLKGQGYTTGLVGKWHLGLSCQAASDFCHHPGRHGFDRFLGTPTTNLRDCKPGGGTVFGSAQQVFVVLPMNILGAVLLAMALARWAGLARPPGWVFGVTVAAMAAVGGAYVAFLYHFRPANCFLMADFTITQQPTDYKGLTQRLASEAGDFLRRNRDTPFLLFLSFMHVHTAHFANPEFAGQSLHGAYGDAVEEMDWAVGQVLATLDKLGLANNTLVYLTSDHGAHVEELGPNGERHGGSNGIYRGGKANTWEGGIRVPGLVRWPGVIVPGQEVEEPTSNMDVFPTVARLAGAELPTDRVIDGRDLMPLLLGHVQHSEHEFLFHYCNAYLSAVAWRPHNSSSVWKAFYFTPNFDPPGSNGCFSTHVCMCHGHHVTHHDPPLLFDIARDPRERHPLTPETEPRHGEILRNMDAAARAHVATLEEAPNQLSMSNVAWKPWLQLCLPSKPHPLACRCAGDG

rat liver DHA-STS = biological target: T2, rat liver DHA-STS (Rattus norvegicus, UniProt P15589); details: administered orally or subcutaneously; cited from earlier work
T2 construct: host or cells: rat liver after oral or subcutaneous dosing
T2 sequence (P15589 20-577): T1 sequence (P15589 20-577)

E1-STS = biological target: T3, E1-STS (Homo sapiens, UniProt P08842); details: 0.1 nM; cited from earlier work
T3 construct: host or cells: intact MCF-7 cells (endogenous enzyme)
T3 sequence (P08842 22-583): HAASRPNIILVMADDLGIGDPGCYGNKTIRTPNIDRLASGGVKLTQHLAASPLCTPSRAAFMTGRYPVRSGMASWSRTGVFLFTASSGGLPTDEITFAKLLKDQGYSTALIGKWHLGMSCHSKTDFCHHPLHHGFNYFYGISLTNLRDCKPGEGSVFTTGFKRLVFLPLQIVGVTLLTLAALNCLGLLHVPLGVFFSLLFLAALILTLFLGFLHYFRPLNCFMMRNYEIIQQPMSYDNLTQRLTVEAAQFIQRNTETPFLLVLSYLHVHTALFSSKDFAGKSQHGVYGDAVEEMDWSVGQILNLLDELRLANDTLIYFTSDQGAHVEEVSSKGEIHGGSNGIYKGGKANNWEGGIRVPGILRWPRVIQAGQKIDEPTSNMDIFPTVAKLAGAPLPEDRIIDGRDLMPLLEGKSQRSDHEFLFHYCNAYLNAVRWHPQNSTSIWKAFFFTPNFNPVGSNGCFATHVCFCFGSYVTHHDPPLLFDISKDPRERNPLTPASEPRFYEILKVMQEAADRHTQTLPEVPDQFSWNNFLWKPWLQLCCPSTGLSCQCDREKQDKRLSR

steroid sulphatase [1] = biological target: T4, steroid sulphatase (Homo sapiens, UniProt P08842); assay: Inhibition of steroid sulphatase activity in placental microsomes (Protocol 2); type: biochemical; set-up: host or cells: JEG3 choriocarcinoma cells (intact monolayers); details: read-out: SULPHATASE % inhibition at 10 μM in placental microsomes
T4 sequence (P08842 22-583): T3 sequence (P08842 22-583)
Experimental: Inhibition of Steroid Sulphatase Activity in Placental Microsomes
Sulphatase-positive human placenta from normal term pregnancies are thoroughly minced with scissors and washed once with cold phosphate buffer (pH 7.4, 50 mM) then re-suspended in cold phosphate buffer (5 ml/g tissue). Homogenisation is accomplished with an Ultra-Turrax homogeniser, using three 10 second bursts separated by 2 minute cooling periods in ice. Nuclei and cell debris are removed by centrifuging (4° C.) at 2000 g for 30 minutes and portions (2 ml) of the supernatant are stored at […] The protein concentration of the supernatants is determined by the method of Bradford (Anal. Biochem., 72, 248-254 (1976)).
Incubations (1 ml) are carried out using a protein concentration of […], substrate concentration of […] [6,7-3H]oestrone-3-sulphate (specific activity 60 Ci/mmol from New England Nuclear, Boston, Mass., U.S.A.) and an incubation time of 20 minutes at 37° C. […] A portion (2 ml) of the organic phase was removed, evaporated and the 3H and 14C content of the residue determined by scintillation spectrometry. The mass of oestrone-3-sulphate hydrolysed is calculated from the 3H counts obtained (corrected for the volumes of the medium and organic phase used, and for recovery of [14C]oestrone added) and the specific activity of the substrate.

steroid sulphatase [2] = biological target: T4, steroid sulphatase; details: cited from earlier work
aromatase = biological target: T5, aromatase (Homo sapiens, UniProt P11511); assay: Aromatase activity in JEG3 choriocarcinoma cells (Protocol 6); type: cell-based
T5 construct: Aromatase activity is measured in JEG3 choriocarcinoma cells, obtained from the ATCC; host or cells: JEG3 choriocarcinoma cells (intact monolayers)
T5 sequence (P11511 1-503): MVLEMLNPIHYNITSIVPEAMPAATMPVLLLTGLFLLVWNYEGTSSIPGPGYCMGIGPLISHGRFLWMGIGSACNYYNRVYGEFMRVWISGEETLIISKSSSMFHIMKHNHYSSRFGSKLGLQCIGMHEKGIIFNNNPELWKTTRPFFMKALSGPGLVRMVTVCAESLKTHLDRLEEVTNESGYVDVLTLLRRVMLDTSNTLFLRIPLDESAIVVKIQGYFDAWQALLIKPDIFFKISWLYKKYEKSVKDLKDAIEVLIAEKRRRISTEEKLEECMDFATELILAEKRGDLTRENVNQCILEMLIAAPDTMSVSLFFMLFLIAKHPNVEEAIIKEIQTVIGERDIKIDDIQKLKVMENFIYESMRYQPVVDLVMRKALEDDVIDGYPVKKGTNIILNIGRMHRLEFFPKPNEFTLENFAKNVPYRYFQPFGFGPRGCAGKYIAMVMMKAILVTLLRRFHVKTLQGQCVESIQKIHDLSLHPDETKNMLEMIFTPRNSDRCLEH

## N#Cc1ccc(N(Cc2ccc(O)cc2)n2cnnc2)cc1 [STX265, 4-[(4-Hydroxylbenzyl)-[1,2,4]triazol-4-ylamino]benzonitrile]
other
  melting point: 228 to 230 °C

## CC12CCC3c4ccc(OS(N)(=O)=O)cc4CCC3C1CCC2=O (centres unmarked) [EMATE, oestrone-3-O-sulphamate]
uterus; rats, oral
  oral uterotrophic activity relative to estradiol: 100 times
Rat liver E1-STS
  inhibition of rat liver E1-STS activity: 99%
Rat liver DHA-STS
  inhibition of rat liver DHA-STS activity: 99%
E1-STS
  inhibition of E1-STS activity in intact MCF-7 cells: more than 99%

## NS(=O)(=O)Oc1ccc(Cn2cncn2)cc1 [STX270, Sulfamic Acid 4-[1,2,4]triazol-1-ylmethylphenyl ester]
Steroid sulphatase [1]
  inhibition at 10 µM: 14%

## COc1cc2c(cc1OS(N)(=O)=O)CC[C@@H]1[C@@H]2CC[C@]2(C)C(=O)CC[C@@H]12 [2-methoxyoestrone-3-O-sulphamate]
uterus; rat, in vivo
  oestrogenicity, in words: devoid of oestrogenicity
Steroid sulphatase [2]
  steroid sulphatase inhibition relative to EMATE, in words: equipotent with EMATE

## oestrone-3-N-sulphamate
Steroid sulphatase [2]
  steroid sulphatase inhibition relative to EMATE, in words: weaker non-time-dependent inactivators

## oestrone-3-S-sulphamate
Steroid sulphatase [2]
  steroid sulphatase inhibition relative to EMATE, in words: weaker non-time-dependent inactivators

## NS(=O)(=O)Oc1ccc(-c2cc(=O)c3cc(OS(N)(=O)=O)ccc3o2)cc1 [Compound H342F1]
aromatase
  AROMATASE inhibition, in words: (No inhibition seen)
